Results: patent publication US7795306B2, “Triterpene derivatives for the treatment of cancer and inflammatory disease by inhibition of NF-κB” (priority 2006, dated 2010)
“Also recorded” adds a separate entry of the source. Square brackets hold non-standard residues; d marks the D form. Peptide text beside a SMILES is read from it.

Experiments:
SiHa = experiment: cell proliferation by MTS assay for 72 h, SiHa; assay type: cell-based, human; details: SiHa tumor cell line
From the text: (§1) PM 2011 (1) inhibits tumor cell lines independent of endothelin receptor A (ETA) inhibition: Others have disclosed PM 2011 (1) and its derivatives as potent endothelin receptor antagonists (WO 92/12991, EP 526,642, U.S. Pat. No. 5,248,807, U.S. Pat. No. 5,463,107 and U.S. Pat. No. 5,587,505). We have used human tumor cell lines to evaluate the effects of PM 2011 (1) on endothelin-1 (ET-1) dependent biologic functions. Some of these cell lines are well characterized for the expression and role of ET-1, ETA and ETB (16, 41). […] To validate three cell lines, we studied the effects of BQ123, BQ788, PM2010, PM2011 and PM2012 on cell proliferation by MTS assay for 72 h (16).

SK-Mel-28 = experiment: cell proliferation by MTS assay for 72 h, SK-Mel-28; assay type: cell-based, human; details: for growth inhibition of SK-Mel 28 cell line (in words): SK-Mel 28, MTS assay
From the text: as §1

C33A = experiment: cell proliferation by MTS assay for 72 h, C33A; assay type: cell-based, human
From the text: as §1

K562 = experiment: cell proliferation by MTS assay for 72 h, K562; assay type: cell-based, human; details: K562 tumor cell line
From the text: as §1

HL60 = experiment: cell proliferation by MTS assay for 72 h, HL60; assay type: cell-based, human
From the text: as §1

NF-κB = experiment: TNF-α-dependent activation of NF-κB binding to κB site in nuclear extracts of HeLa cells, ELISA (Panomics); assay type: cell-based; details: HeLa cell nuclear extracts, FIG. 1
From the text: To further explore the additional molecular target(s) for PM2011, we postulated that these compounds could antagonize the activation of NF-κB. To test this hypothesis, we evaluated the effects of PM2010, PM2011 and PM2012 on TNF-α-dependent activation of NF-κB binding to κB site in nuclear extracts of HeLa cells by an ELISA (Panomics) as recommended.

[1] = Homo sapiens, 100 μM, read-out: % Inhibition at 100 μM (i)

IC50 (SK-Mel-28; Homo sapiens, SK-Mel-28 tumor cell line, MTS assay) [µM] | IC50 (HL60; Homo sapiens, HL-60, HL60 tumor cell line) [µM] | IC50 (SK-Mel-28; SK-Mel-28 tumor cell line, MTS assay) [µM] | IC50 (K562) [µM] | Compound | inhibition at 100 µM (SiHa; [1]) [%] | growth inhibition of SK-Mel 28 cell line (in words) (SK-Mel-28) | IC50 (C33A; Homo sapiens, C-33-A, C33A tumor cell line, MTS assay, 72 h) [µM] | inhibition at 100 µM (K562; [1]) [%] | % Inhibition at 100 μM (i) (SiHa; 100 μM) [% i] | % Inhibition at 100 μM (i) (SK-Mel-28; SK-Mel-28 tumor cell line, 100 μM, MTS assay) [% i] | % Inhibition at 100 μM (i) (C33A; C33A tumor cell line, 100 μM, MTS assay, 72 h) [% i] | % Inhibition at 100 μM (i) (K562; 100 μM) [%] | IC50 (HL60; HL60 tumor cell line) [µM] | IC50 (SiHa) [µM] | IC50 (C33A; C33A tumor cell line, MTS assay, 72 h) [µM] | inhibition of C33A (in words) (C33A; HPV-negative cell line C33A, neither secretes ET-1 nor expresses ETA) | NF-κB binding to κB site / inhibition of NF-κB activation (in words) (NF-κB)
82 | 45 | – | – | CCCC[C@@H](NC(=O)[C@@H](Cc1cn(C(=O)OC)c2ccccc12)NC(=O)[C@H](CC(C)(C)C)NC(=O)N1[C@H](C)CCC[C@@H]1C)C(=O)O [BQ788] | 45 | inhibited the growth | 61.8 | 0 | – | – | – | – | – | – | – | – | –
– | – | – | – | CC(C)C[C@@H]1NC(=O)[C@@H](C(C)C)NC(=O)[C@@H]2CCCN2C(=O)[C@@H](CC(=O)O)NC(=O)[C@@H](Cc2c[nH]c3ccccc23)NC1=O [BQ-123] (cyclo(L[dW][dD]P[dV])) | – | no growth inhibition | – | – | 0 | 0 | 20 | 30 | 46 | – | – | – | –
– | – | 0.9 | 1 | Myriceric acid A [PM2011] | – | – | – | – | – | – | – | – | 2.3 | 3 | 1.3 | inhibition | dose-dependent inhibition; also recorded: dose-dependent decrease
